Laboratory results: patent US11242361B2 (Proteostasis Therapeutics, Inc., priority 2013, dated 2022)

Target: USP14 (Homo sapiens (Human), UniProt P54578)
Test: USP14 Inhibition Assay
Assay type: biochemical
Details: average value from a minimum of two experimental determinations, read-out: IC50 Category
Experimental: Example 17: USP14 Inhibition Assay
“I” in the Table below designates an IC50 of >5 μM, “II” in the Table below designates and IC50 between 0.5 and 5 μM, and “III” designates an IC50<0.5 μM. The IC50 values in the Table below represent the average value from a minimum of two experimental determinations.

Sequence of USP14 (P54578 whole entry, looked up): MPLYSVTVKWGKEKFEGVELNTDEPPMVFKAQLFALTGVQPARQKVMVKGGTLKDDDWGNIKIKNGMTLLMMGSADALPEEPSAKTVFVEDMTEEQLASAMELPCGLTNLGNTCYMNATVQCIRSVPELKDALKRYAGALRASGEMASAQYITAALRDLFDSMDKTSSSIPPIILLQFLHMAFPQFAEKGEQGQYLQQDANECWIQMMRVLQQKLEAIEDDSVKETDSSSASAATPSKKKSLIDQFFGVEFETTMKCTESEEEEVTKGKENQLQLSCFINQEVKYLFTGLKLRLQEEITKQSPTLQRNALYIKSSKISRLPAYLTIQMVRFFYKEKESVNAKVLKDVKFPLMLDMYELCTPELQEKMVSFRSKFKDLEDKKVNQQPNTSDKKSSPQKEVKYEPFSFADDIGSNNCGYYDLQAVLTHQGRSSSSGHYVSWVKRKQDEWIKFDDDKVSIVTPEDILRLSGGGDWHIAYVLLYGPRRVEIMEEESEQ

Structure (SMILES) | IC50
CCOC(=O)CNCC1CCN(CC(=O)c2c(C)n(-c3ccc(C#N)cc3)c3cc(Br)cnc23)CC1 [Compound 368] | 0.5 to 5 µM
COc1cnc2c(C(=O)CN3CCC(CN)CC3)c(C)n(-c3ccc(C#N)cc3)c2c1 [Compound 369] | < 0.5 µM
COc1cnc2c(C(=O)CN3CCC(CN(C)C)CC3)c(C)n(-c3ccc(C#N)cc3)c2c1 [Compound 370] | < 0.5 µM
Cc1c(C(=O)CN2CCC(CC(=O)O)CC2)c2ncc(Br)cc2n1-c1ccc(Cl)cc1 [Compound 371] | > 5 µM
N#Cc1ccc(-n2c(C(F)(F)F)c(C(=O)CN3CCCCC3)c3ncccc32)cc1 [Compound 372] | > 5 µM
Cc1c(C(=O)CN2[C@H](C)CCC[C@H]2C)c2ncc(Br)cc2n1-c1ccc(C#N)cc1 [Compound 373] | 0.5 to 5 µM
Cc1c(C(=O)CN2[C@@H](C)CCC[C@@H]2C)c2ncc(Br)cc2n1-c1ccc(C#N)cc1 [Compound 374] | 0.5 to 5 µM
Cc1c(C(=O)CN2CCCCC2)c2ncc(CC(=O)NC3CC3)cc2n1-c1ccc(C#N)cc1 [Compound 381, 2-(1-(4-Cyanophenyl)-2-methyl-3-(2-(piperidin-1-yl)acetyl)-1H-pyrrolo[3,2-b]pyridin-6-yl)-N-cyclopropylacetamide] | < 0.5 µM
CCN(C)C(=O)Cc1cnc2c(C(=O)CN3CCCCC3)c(C)n(-c3ccc(C#N)cc3)c2c1 [Compound 382, 2-(1-(4-Cyanophenyl)-2-methyl-3-(2-(piperidin-1-yl)acetyl)-1H-pyrrolo[3,2-b]pyridin-6-yl)-N-ethyl-N-methylacetamide] | < 0.5 µM
CCNC(=O)Cc1cnc2c(C(=O)CN3CCCCC3)c(C)n(-c3ccc(C#N)cc3)c2c1 [Compound 383, 2-(1-(4-Cyanophenyl)-2-methyl-3-(2-(piperidin-1-yl)acetyl)-1H-pyrrolo[3,2-b]pyridin-6-yl)-N-ethylacetamide] | < 0.5 µM
CCOC(=O)Cc1cnc2c(C(=O)CN3CCCCC3)c(C)n(-c3ccc(C#N)cc3)c2c1 [Compound 384, Ethyl 2-(1-(4-Cyanophenyl)-2-methyl-3-(2-(piperidin-1-yl)acetyl)-1H-pyrrolo[3,2-b]pyridin-6-yl)acetate] | < 0.5 µM
Cc1c(C(=O)CN2CCCCC2)c2ncc(Cl)cc2n1-c1ccc(C#N)cc1 [Compound 385] | < 0.5 µM
Cc1c(C(=O)CN2CCC(CNCC(=O)O)CC2)c2ncc(Br)cc2n1-c1ccc(Cl)cc1 [Compound 386] | > 5 µM
CCCC(=O)CCc1cnc2c(C(=O)CN3CCCCC3)c(C)n(-c3ccc(Cl)cc3)c2c1 [Compound 387] | < 0.5 µM
Cc1c(C(=O)CN2CCC(O)CC2)c2ncccc2n1-c1ccc(Cl)cc1 [Compound 388] | < 0.5 µM
Cc1c(C(=O)CN2CCC(O)CC2)c2ccccc2n1-c1ccc(F)cc1 [Compound 389] | < 0.5 µM
Cc1c(C(=O)CN2CCC(O)(C(F)(F)F)CC2)c2ccccc2n1-c1ccc(Cl)cc1 [Compound 390] | > 5 µM
Cc1c(C(=O)CN2CCC(O)CC2)c2ccccc2n1-c1ccc(F)c(F)c1 [Compound 391] | 0.5 to 5 µM
Cc1c(C(=O)CN2CCC(O)CC2)c2ccccc2n1-c1ccc(Cl)nc1 [Compound 392] | 0.5 to 5 µM
Cc1c(C(=O)CN2CCC(O)CC2)c2ccccc2n1-c1ccc(C#N)nc1 [Compound 393] | 0.5 to 5 µM
Cc1c(C(=O)CN2CCC(O)CC2)c2ccc(F)cc2n1-c1ccc(Cl)cc1 [Compound 394] | > 5 µM
Cc1c(C(=O)CN2CCC(O)CC2)c2ccccc2n1-c1cccnc1 [Compound 395] | > 5 µM
Cc1c(C(=O)CN2CCC(O)CC2)c2ccccc2n1-c1ccncc1 [Compound 396] | > 5 µM
Cc1c(C(=O)CN2CCC(O)CC2)c2ccccc2n1-c1ccccn1 [Compound 397] | > 5 µM
Cc1c(C(=O)CN2CCC(O)CC2)c2ccccc2n1-c1ccc(Cl)cn1 [Compound 398] | 0.5 to 5 µM
O=C(CN1CCCCC1)c1c(C2CC2)n(-c2ccc(Cl)cc2)c2ccccc12 [Compound 399] | > 5 µM
Cc1c(C(=O)CN2CCC(O)CC2)c2ccccc2n1-c1ncc(Cl)cn1 [Compound 400] | > 5 µM
CCc1c(C(=O)CN2CCCCC2)c2ccccc2n1-c1ccc(Cl)cc1 [Compound 401] | 0.5 to 5 µM
Cc1c(C(=O)CN2CCC(O)CC2)c2ccccc2n1-c1ncc(Cl)s1 [Compound 402] | > 5 µM
